Assay results reported in patent publication US12319664B2, “Herbicidally active 3-phenylisoxazoline-5-carboxamides of cyclopentenylcarboxylic acid derivatives” (Bayer Aktiengesellschaft, priority 2018, dated 2025).

What was measured:
ALOMY = assay: Post-emergence herbicidal action against ALOMY; format: in vivo, Alopecurus myosuroides; conditions: application rate 80 g/ha, rated visually after about 3 weeks
Outline: (§1)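 Weeds grown from seed in sandy loam in the greenhouse, sprayed post-emergence at the one-leaf stage 2 to 3 weeks after sowing. Compounds formulated as WP or EC, applied as aqueous suspension/emulsion with 0.5% additive at 600 l/ha. Activity rated visually after about 3 weeks against untreated controls (100% = plants died, 0% = like control).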

AVEFA = assay: Post-emergence herbicidal action against AVEFA; format: in vivo, Avena fatua; conditions: application rate 80 g/ha, rated visually after about 3 weeks
Outline: as §1

ECHCG = assay: Post-emergence herbicidal action against ECHCG; format: in vivo, Echinochloa crus-galli; conditions: application rate 80 g/ha, rated visually after about 3 weeks
Outline: as §1

LOLRI = assay: Post-emergence herbicidal action against LOLRI; format: in vivo, Lolium rigidum; conditions: application rate 80 g/ha, rated visually after about 3 weeks
Outline: as §1

SETVI = assay: Post-emergence herbicidal action against SETVI; format: in vivo, Setaria viridis; conditions: application rate 80 g/ha, rated visually after about 3 weeks
Outline: as §1

ABUTH = assay: Post-emergence herbicidal action against ABUTH; format: in vivo, Abutilon theophrasti; conditions: application rate 80 g/ha, rated visually about 3 weeks after treatment
Outline: as §1

AMARE = assay: Post-emergence herbicidal action against AMARE; format: in vivo, Amaranthus retroflexus; conditions: application rate 80 g/ha, rated visually about 3 weeks after treatment
Outline: as §1

MATIN = assay: Post-emergence herbicidal action against MATIN; format: in vivo, Matricaria inodora; conditions: application rate 80 g/ha, rated visually about 3 weeks after treatment
Procedure: [table] 2. Post-emergence herbicidal action against harmful plants and crop plant compatibility Seeds of monocotyledonous and dicotyledonous weeds and crop plants are placed in sandy loam in plastic or wood-fibre pots, covered with soil and cultivated in a greenhouse under controlled growth conditions. 2 to 3 weeks after sowing, the test plants are treated at the one-leaf stage. The compounds of the invention, formulated in the form of wettable powders (WP) or as emulsion concentrates (EC), are then sprayed onto the green parts of the plants as aqueous suspension or emulsion with addition of 0.5% additive at a water application rate of 600 l/ha (converted). After the test plants have been kept in the greenhouse under optimum growth conditions for about 3 weeks, the activity of the preparations is rated visually in comparison to untreated controls. For example, 100% activity=the plants have died, 0% activity=like control plants.

PHBPU = assay: Post-emergence herbicidal action against PHBPU; format: in vivo, Pharbitis purpurea; conditions: application rate 80 g/ha, rated visually about 3 weeks after treatment
Outline: as §1

POLCO = assay: Post-emergence herbicidal action against POLCO; format: in vivo, Polygonum convolvulus; conditions: application rate 80 g/ha, rated visually about 3 weeks after treatment
Outline: as §1

VIOTR = assay: Post-emergence herbicidal action against VIOTR; format: in vivo, Viola tricolor; conditions: application rate 80 g/ha, rated visually about 3 weeks after treatment
Outline: as §1

VERPE = assay: Post-emergence herbicidal action against VERPE; format: in vivo, Veronica persica; conditions: application rate 80 g/ha
Outline: as §1

HORMU = assay: Post-emergence herbicidal action against HORMU; format: in vivo, Hordeum murinum; conditions: application rate 80 g/ha
Outline: as §1

STEME = assay: Post-emergence herbicidal action against STEME; format: in vivo, Stellaria media; conditions: application rate 80 g/ha, rated visually about 3 weeks after treatment
Outline: as §1

| SMILES | Herbicidal action against [%] ALOMY (ALOMY) [%] | Herbicidal action against [%] AVEFA (AVEFA) [%] | Herbicidal action against [%] ECHCG (ECHCG) [%] | Herbicidal action against [%] LOLRI (LOLRI) [%] | Herbicidal action against [%] SETVI (SETVI) [%] | Herbicidal action against [%] ABUTH (ABUTH) [%] | Herbicidal action against [%] AMARE (AMARE) [%] | Herbicidal action against [%] MATIN (MATIN) [%] | Herbicidal action against [%] PHBPU (PHBPU) [%] | Herbicidal action against [%] POLCO (POLCO) [%] | Herbicidal action against [%] VIOTR (VIOTR) [%] | Herbicidal action against [%] VERPE (VERPE) [%] | Herbicidal action against [%] HORMU (HORMU) [%] | Herbicidal action against [%] STEME (STEME) [%] |
| --- | --- | --- | --- | --- | --- | --- | --- | --- | --- | --- | --- | --- | --- | --- |
| CCOC(=O)[C@@H]1C=C[C@H](NC(=O)C2(C(F)(F)F)CC(c3cc(C)cc(Cl)c3)=NO2)C1 (stereo partly shown) [Example I-023] | 90 | 90 | 80 | 90 | 90 | 80 | 90 | 90 | 80 | 100 | 80 | 90 | 80 |  |
| C[C@]1(C(=O)N[C@@H]2C=C(C(=O)O)CC2)CC(c2cc(F)cc(F)c2)=NO1 [Example V-01] | 100 |  | 90 | 100 | 80 | 80 | 80 | 80 | 90 | 90 | 90 | 80 | 90 | 90 |
| CCOC(=O)C1C=CC(NC(=O)C2(C(F)(F)F)CC(c3cc(F)cc(C#N)c3)=NO2)C1 (mixture of isomers) [Example I-071] | 90 | 100 | 90 | 90 | 90 | 80 | 80 | 80 |  | 90 | 80 | 80 | 90 | 90 |
| CCOCCOC(=O)[C@@H]1C=C[C@H](NC(=O)[C@@]2(C(F)(F)F)CC(c3cc(F)cc(F)c3)=NO2)C1 [Example I-077] | 90 | 100 | 80 | 90 | 80 |  | 80 | 80 | 80 | 80 | 80 | 90 | 90 | 80 |
| C=CC1(C(=O)N[C@H]2C=C[C@@H](C(=O)OCCC(F)(F)F)C2)CC(c2cc(F)cc(F)c2)=NO1 (stereo partly shown) [Example I-017] | 100 | 100 | 100 | 100 | 90 | 100 | 90 | 80 |  | 90 | 80 | 90 | 100 | 100 |
| CCOC(=O)[C@@H]1C=C[C@H](NC(=O)C2(OC)CC(c3cc(F)cc(F)c3)=NO2)C1 (stereo partly shown) [Example I-020] | 90 | 100 | 80 | 90 | 90 | 80 | 100 | 90 | 80 |  | 100 | 90 | 80 | 80 |
| COC(=O)C1C=CC(NC(=O)C2(C(F)(F)F)CC(c3cc(C)cc(C)c3)=NO2)C1 (mixture of isomers) [Example I-055] | 90 | 80 | 90 | 90 | 90 | 80 | 80 | 80 |  | 90 | 90 | 80 | 90 | 90 |
| C=CC1(C(=O)N[C@H]2C=C[C@@H](C(=O)OCC(F)(F)F)C2)CC(c2cc(F)cc(F)c2)=NO1 (stereo partly shown) [Example I-015] | 100 | 100 | 100 | 100 | 90 | 90 | 100 | 80 |  | 100 | 90 | 90 | 100 | 100 |
| C=CC1(C(=O)N[C@H]2C=C[C@@H](C(=O)OCC(F)F)C2)CC(c2cc(F)cc(F)c2)=NO1 (stereo partly shown) [Example I-016] | 100 | 90 | 100 | 100 | 90 | 90 | 90 | 80 |  | 90 | 80 | 90 | 90 | 100 |
| COC(=O)[C@@H]1C=C[C@H](NC(=O)C2(OC)CC(c3cc(F)cc(F)c3)=NO2)C1 (stereo partly shown) [Example I-019] | 90 | 100 | 80 | 90 | 90 | 80 | 90 | 90 |  | 100 | 80 | 90 | 90 | 90 |
